In patent US10093623B2, “Cyclic amides as MetAP-2 inhibitors” (MERCK PATENT GmbH, priority 2012, dated 2018):

Biological target: MetAP-2 (Homo sapiens, UniProt P50579)
Experiment: MetAP-2 activity measurement (coupled enzymatic reactions, Met-Arg-Ser substrate, dianisidine detection at 450 nm)
Type: biochemical
Conditions: Inhibition of MetAP-2; read-out: IC50 enzyme
Outline: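 Coupled continuous assay with Met-Arg-Ser tripeptide substrate: released methionine oxidised by L-amino acid oxidase to give H2O2, which peroxidase uses to oxidise dianisidine, followed at 450 nm. Activity taken as slope of absorbance versus time over the visually linear region; dianisidine extinction coefficient converts to mol Met per time.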

MetAP-2, sequence (P50579 whole entry, species assumed): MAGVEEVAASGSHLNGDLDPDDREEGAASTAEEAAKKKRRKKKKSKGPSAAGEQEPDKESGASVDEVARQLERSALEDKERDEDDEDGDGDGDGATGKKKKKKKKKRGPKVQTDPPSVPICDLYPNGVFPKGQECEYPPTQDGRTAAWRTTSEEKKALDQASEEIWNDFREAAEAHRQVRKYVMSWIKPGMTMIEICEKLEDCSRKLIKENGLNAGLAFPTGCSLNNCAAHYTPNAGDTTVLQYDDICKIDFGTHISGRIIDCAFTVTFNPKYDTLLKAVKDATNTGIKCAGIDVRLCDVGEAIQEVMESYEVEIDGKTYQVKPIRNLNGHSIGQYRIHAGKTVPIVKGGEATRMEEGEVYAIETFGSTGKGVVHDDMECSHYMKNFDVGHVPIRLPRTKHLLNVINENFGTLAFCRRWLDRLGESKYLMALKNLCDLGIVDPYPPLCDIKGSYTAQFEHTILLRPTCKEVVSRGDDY

Row | IC50 | Structure (SMILES)
1 | > 10 µM | O=C1N(Cc2ccccc2)CCC1(O)C(=O)N1Cc2ccccc2C1 (centres unmarked) [A268, 1-benzyl-3-(1,3-dihydroisoindole-2-carbonyl)-3-hydroxypyrrolidin-2-one]
2 | 1 to 10 µM | N#Cc1c[nH]c2ccc(N3CC[C@@](O)(C(=O)NCc4cc(F)cc(Cl)c4)C3=O)cc12 [A224, N-(3-Chloro-5-fluorobenzyl)-(R)-1-(3-cyano-1H-indol-5-yl)-3-hydroxy-2-oxopyrrolidine-3-carboxamide]
3 | 1 to 10 µM | O=C1N(c2ccccc2)CC[C@@]1(O)CNCc1cc(F)cc(Cl)c1 [B58, (R)-3-[(3-Chloro-5-fluorobenzylamino)methyl]-3-hydroxy-1-phenylpyrrolidin-2-one]
4 | 0.01 to 1 µM | O=C(NCc1cc(F)cc(Cl)c1)C1(O)CCN(c2cnn(C3CCNCC3)c2)C1=O (centres unmarked) [A180, N-(3-Chloro-5-fluorobenzyl)-3-hydroxy-2-oxo-1-(1-piperidin-4-yl-1H-pyrazol-4-yl)pyrrolidine-3-carboxamide]
5 | 1 to 10 µM | O=C(NCc1cc(F)cc(Cl)c1)[C@]1(O)CCN(CCc2ccccc2)C1=O [A92, N-(3-Chloro-5-fluorobenzyl)-(R)-3-hydroxy-2-oxo-1-phenethyl-pyrrolidine-3-carboxamide]
6 | > 10 µM | CC(=O)Nc1ccc(N2CC[C@@](O)(C(=O)NCCc3cc(F)cc(Cl)c3)C2=O)cn1 [A156, N-[2-(3-Chloro-5-fluorophenyl)-ethyl]-(R)-1-(6-acetylamino-pyridin-3-yl)-3-hydroxy-2-oxo-pyrrolidine-3-carboxamide]
7 | > 10 µM | O=C(NCc1cc(F)cc(Cl)c1)[C@]1(O)CCN(c2cccc(NS(=O)(=O)C3CC3)c2)C1=O [A85, N-(3-Chloro-5-fluorobenzyl)-(R)-1-(3-cyclopropanesulfonylamino-phenyl)-3-hydroxy-2-oxo-pyrrolidine-3-carboxamidee]
8 | 0.01 to 1 µM | O=C(NCCc1cccc(F)c1)[C@@]1(O)CCN(c2ccc3[nH]ccc3c2)C1=O [B10]
9 | 1 to 10 µM | O=C(NCc1cccc(F)c1)C1(O)CCCN(Cc2ccc(F)c(F)c2)C1=O (centres unmarked) [A253, N-(3-Fluorobenzyl)-1-(3,4-difluorobenzyl)-3-hydroxy-2-oxo-piperidine-3-carboxamide]
10 | 0.01 to 1 µM | CCC(=O)Nc1ccc(N2CCC(O)(C(=O)NCc3cc(F)cc(Cl)c3)C2=O)cn1 (centres unmarked) [A78, N-(3-Chloro-5-fluorobenzyl)-3-hydroxy-2-oxo-1-(6-propionylaminopyridin-3-yl)-pyrrolidine-3-carboxamide]
11 | 0.01 to 1 µM | O=C(NCc1cc(F)cc(Cl)c1)[C@@]1(O)CCN(c2ccc3cc[nH]c3c2)C1=O [A153, N-(3-Chloro-5-fluorobenzyl)-(S)-3-hydroxy-1-(1H-indol-6-yl)-2-oxopyrrolidine-3-carboxamide]
12 | 0.01 to 1 µM | O=C(c1cccc(N2CC[C@](O)(C(=O)NCc3cc(F)cc(Cl)c3)C2=O)c1)N1CCOCC1 [A72, N-(3-Chloro-5-fluorobenzyl)-(S)-3-hydroxy-1-[3-(morpholine-4-carbonyl)phenyl]-2-oxopyrrolidine-3-carboxamide]
13 | 0.01 to 1 µM | O=C(NCc1cc(F)cc(Cl)c1)[C@@]1(O)CCN(Cc2ccccc2)C1=O [A140, N-(3-Chloro-5-fluorobenzyl)-(S)-1-benzyl-3-hydroxy-2-oxo-pyrrolidine-3-carboxamide]
14 | > 10 µM | O=C(CNC(=O)[C@@]1(O)CCN(c2ccccc2)C1=O)N1CCOCC1 [A62, N-(2-Morpholin-4-yl-2-oxoethyl)-(S)-3-hydroxy-2-oxo-1-phenyl-pyrrolidine-3-carboxamide]
15 | 1 to 10 µM | O=C1CCc2cc(N3CC[C@](O)(C(=O)NCc4ccc(Cl)c(F)c4)C3=O)ccc2N1 [A265, N-(4-Chloro-3-fluorobenzyl)-(S)-3-hydroxy-2-oxo-1-(2-oxo-1,2,3,4-tetrahydroquinolin-6-yl)-pyrrolidine-3-carboxamide]
16 | 0.01 to 1 µM | O=C(NCc1cc(F)cc(Cl)c1)C1(O)CCN(CCc2c[nH]c3ccc(F)cc23)C1=O (centres unmarked) [A219, N-(3-Chloro-5-fluorobenzyl)-1-[2-(5-fluoro-1H-indol-3-yl)ethyl]-3-hydroxy-2-oxopyrrolidine-3-carboxamide]
17 | 0.01 to 1 µM | CN(C)C(=O)c1cccc(N2CCC(O)(C(=O)NCc3cc(F)cc(Cl)c3)C2=O)c1 (centres unmarked) [A134, N-(3-Chloro-5-fluorobenzyl)-1-(3-Dimethylcarbamoylphenyl)-3-hydroxy-2-oxopyrrolidine-3-carboxamide]
18 | 0.01 to 1 µM | O=C1CCc2cc(N3CC[C@](O)(C(=O)NCc4c(F)cc(Cl)cc4F)C3=O)ccc2N1 [A249, N-(4-Chloro-2,6-difluorobenzyl)-(S)-3-hydroxy-2-oxo-1-(2-oxo-1,2,3,4-tetrahydroquinolin-6-yl)-pyrrolidine-3-carboxamide]
19 | 0.01 to 1 µM | COCCn1cc(N2CCC(O)(C(=O)NCc3cc(F)cc(Cl)c3)C2=O)cn1 (centres unmarked) [B82, N-(3-Chloro-5-fluorobenzyl)-3-hydroxy-1-[1-(2-methoxyethyl)-1H-pyrazol-4-yl]-2-oxo-pyrrolidine-3-carboxamide]

Row | IC50 | Structure (SMILES)
20 | 0.01 to 1 µM | O=C1CCc2cc(N3CC[C@](O)(C(=O)NCCc4cc(F)cc(Cl)c4)C3=O)ccc2N1 [A149, N-[2-(3-Chloro-5-fluorophenyl)-ethyl]-(S)-3-hydroxy-2-oxo-1-(2-oxo-1,2,3,4-tetrahydroquinolin-6-yl)pyrrolidine-3-carboxamide]
21 | > 10 µM | CN(C)CCN(C)C(=O)[C@@]1(O)CCN(c2ccccc2)C1=O [A61]
22 | 1 to 10 µM | O=C(NCCc1cc(F)cc(F)c1)[C@]1(O)CCN(c2ccc3[nH]ccc3c2)C1=O [B111, N-[2-(3,5-Difluorophenyl)ethyl]-(R)-3-hydroxy-1-(1H-indol-5-yl)-2-oxopyrrolidine-3-carboxamide]
23 | > 10 µM | CNC(=O)c1cc2cc(N3CC[C@@](O)(C(=O)NCc4cc(F)cc(Cl)c4)C3=O)ccc2[nH]1 [B102, N-Methyl-5-[(R)-3-(3-chloro-5-fluorobenzylcarbamoyl)-3-hydroxy-2-oxopyrrolidin-1-yl]-1H-indole-2-carboxamide]
24 | 0.01 to 1 µM | O=C1CCc2cc(N3CC[C@](O)(C(=O)NCc4cc(F)ccc4F)C3=O)ccc2N1 [B24, N-(2,5-Difluorobenzyl)-(S)-3-hydroxy-2-oxo-1-(2-oxo-1,2,3,4-tetrahydroquinolin-6-yl)-pyrrolidine-3-carboxamide]
25 | 0.01 to 1 µM | N#Cc1ccc(N2CC[C@](O)(C(=O)NCc3cc(F)cc(Cl)c3)C2=O)cn1 [A97, N-(3-Chloro-5-fluorobenzyl)-(S)-1-(6-cyanopyridin-3-yl)-3-hydroxy-2-oxopyrrolidine-3-carboxamide]
26 | 0.01 to 1 µM | O=C(NCc1cc(F)cc(Cl)c1)C1(O)CCCN(c2ccccc2)C1=O (centres unmarked) [A65, N-(3-Chloro-5-fluorobenzyl)-3-hydroxy-2-oxo-1-phenylpiperidine-3-carboxamide]
27 | 0.01 to 1 µM | O=C1N(Cc2ccccc2)CCCC1(O)CNCc1cc(F)cc(Cl)c1 (centres unmarked) [B31, 1-Benzyl-3-[(3-chloro-5-fluorobenzylamino)methyl]-3-hydroxypiperidin-2-one]
28 | 0.01 to 1 µM | O=C1COc2cc(N3CCC(O)(C(=O)NCc4cc(F)cc(Cl)c4)C3=O)ccc2N1 (centres unmarked) [A151, N-(3-Chloro-5-fluorobenzyl)-3-hydroxy-2-oxo-1-(3-oxo-3,4-dihydro-2H-benzo-1,4-oxazin-7-yl)pyrrolidine-3-carboxamide]
29 | 0.01 to 1 µM | O=C(NCc1cc(F)cc(Cl)c1)[C@@]1(O)CCN(c2ccc(C(F)(F)F)nc2)C1=O [A99, N-(3-Chloro-5-fluorobenzyl)-(S)-3-hydroxy-2-oxo-1-(6-trifluoromethylpyridin-3-yl)-pyrrolidine-3-carboxamide]
30 | 1 to 10 µM | O=C(NCc1cc(F)cc(Cl)c1)C1(O)CCN(C[C@H]2CC[C@H](C(=O)O)CC2)C1=O (some centres unmarked) [A227, 4-[3-(3-Chloro-5-fluorobenzyl-carbamoyl)-3-hydroxy-2-oxo-pyrrolidin-1-ylmethyl]cyclo-hexanecarboxylic acid]
31 | 0.01 to 1 µM | NC(=O)c1cccc(N2CCC(O)(C(=O)NCCc3ccccc3F)C2=O)c1 (centres unmarked) [A179, N-[2-(2-Fluorophenyl)ethyl]-1-(3-carbamoylphenyl)-3-hydroxy-2-oxopyrrolidine-3-carboxamide]
32 | > 10 µM | OC1(CNCc2cc(F)cc(Cl)c2)CCN(Cc2ccccc2)C1 (centres unmarked) [B30, 1-Benzyl-3-[(3-chloro-5-fluorobenzylamino)methyl]-pyrrolidin-3-ol]
33 | > 10 µM | O=C1CCc2cc(N3CC[C@@](O)(C(=O)NCCc4cc(F)cc(Cl)c4)C3=O)ccc2N1 [A150, N-[2-(3-Chloro-5-fluorophenyl)-ethyl]-(R)-3-hydroxy-2-oxo-1-(2-oxo-1,2,3,4-tetrahydroquinolin-6-yl)pyrrolidine-3-carboxamide]
34 | 0.01 to 1 µM | NC(=O)c1cncc(N2CCC(O)(C(=O)NCc3cc(F)cc(Cl)c3)C2=O)c1 (centres unmarked) [A216, 5-[3-(3-Chloro-5-fluorobenzylcarbamoyl)-3-hydroxy-2-oxopyrrolidin-1-yl]-nicotinamide]
35 | 0.01 to 1 µM | O=C1CCc2cc(N3CC[C@](O)(C(=O)NCc4ccc(F)cc4Cl)C3=O)ccc2N1 [A242, N-(2-Chloro-4-fluorobenzyl)-(S)-3-hydroxy-2-oxo-1-(2-oxo-1,2,3,4-tetrahydroquinolin-6-yl)-pyrrolidine-3-carboxamide]
36 | 0.01 to 1 µM | O=C(c1cc2cc(N3CC[C@](O)(C(=O)NCc4cc(F)cc(Cl)c4)C3=O)ccc2[nH]1)N1CCOCC1 [B112, N-(3-Chloro-5-fluorobenzyl)-(S)-3-hydroxy-1-[2-(morpholine-4-carbonyl)-1H-indol-5-yl]-2-oxo-pyrrolidine-3-carboxamide]
37 | > 10 µM | O=C1COc2cc(N3CC[C@@](O)(C(=O)NCc4cc(F)cc(Cl)c4)C3=O)ccc2N1 [A198, N-(3-Chloro-5-fluorobenzyl)-(R)-3-hydroxy-2-oxo-1-(3-oxo-3,4-dihydro-2H-benzo-1,4-oxazin-7-yl)pyrrolidine-3-carboxamide]
38 | 0.01 to 1 µM | NC(=O)c1cc(N2CCC(O)(C(=O)NCc3cc(F)cc(Cl)c3)C2=O)ccc1F (centres unmarked) [B28, N-(3-Chloro-5-fluorobenzyl)-1-(3-carbamoyl-4-fluorophenyl)-3-hydroxy-2-oxopyrrolidine-3-carboxamide]
